Test results published in patent US6153756A, “Soluble prodrugs of paclitaxel” (priority 1997, dated 2000).
“And” between values parts separate entries of the source, which are not always exact repeats. Equal entries are not always repeated. Structures can show the parent of a compound that is named as a salt. Where two headings read alike, the source gives them in different places.

Legend:
[1] = Stability of paclitaxel 2'-methylpyridinium acetate (HPLC); format: physicochemical
Procedure: The onium salt paclitaxel-2'-MPA was prepared by the method of Nicolaou et al., Angew. Chim. Int. Engl., 33:1583-1587 ([…]). A 2.40 mg/ml solution of the paclitaxel-2'-MPA was prepared by dissolving the salt (10.2 mg) in a solution of water (3.024 ml) and polyethylene glycol (1.234 ml). Samples of this solution were frozen. The frozen samples were slowly warmed to room temperature and homogenized with CH3 CN (50 μl). An aliquot (50 μl) was removed and diluted to a final volume of 200 μl with deionized H2 O and analyzed via HPLC (20 μl injection).
Analysis conditions were as follows: […]
Mobile phase: 50% MeOH/80 mM NH4 OAc

[2] = Stability of 2'-MPA after HPLC purification in presence of excess acetate; format: physicochemical; conditions: excess acetate ion, upon concentration of HPLC effluent, to paclitaxel
[3] = test system: neoplasms including breast; conditions: several types of neoplasms including breast; cited from earlier work
[4] = Solubility of 2'-MPM in deionized water; format: physicochemical
Procedure: Solubility: Deionized water (0.5 ml) was added to three samples of the 2'-MPM (1.54 mg, 0.97 mg and 0.80 mg) and the flask sonicated for approximately one (1) minute.

[5] = Extraction of 2'-MPM from water into CH2Cl2; format: physicochemical; conditions: three samples (1.2, 1.0, 0.98 mg) in water (1 ml) stirred with CH2Cl2 (1 ml)
Procedure: Extraction: Three samples (1.2,1.0 and 0.98 mg) were dissolved in water (1 ml) and vigorously stirred with CH2 Cl2 (1 ml). The organic phase was transferred to a clean, tared vial and concentrated in vacuo. The residue was weighed and compared to the theoretical input to gauge the effectiveness of the extraction procedure. Average return for this extraction was about 44% of theoretical.

[6] = Aqueous stability of 2'-MPM in H2O and 0.2M NaCl; format: physicochemical
Procedure: Aqueous Stability: The stability of the prodrug in H2 O and 0.2M NaCl was examined at both room temperature and under refrigerated conditions. Samples in H2 O (0.54 mg in 2 ml) and NaCl (0.57 mg in 2 ml) at room temperature were examined at two minute time intervals (0 through 12 minutes), 2 hours and 24 hours. […] At 4° C. the product concentration was unchanged at 24 and 48 hours but decreased to 90% after 72 hours. […] At 4° C. the product concentration was unchanged at 24 hours, was 91% at 48 hours and was 88% at 72 hours.

[7] = Water solubility of paclitaxel and of its prodrugs (general statements); format: physicochemical; conditions: listed advantage of the novel salts
[8] = freshly prepared solution, 0.53 mg/ml in CH3CN

SMILES: CC(=O)O[C@H]1C(=O)[C@@]2(C)[C@H]([C@H](OC(=O)c3ccccc3)[C@]3(O)C[C@H](OC(=O)[C@H](Oc4cccc[n+]4C)[C@@H](NC(=O)c4ccccc4)c4ccccc4)C(C)=C1C3(C)C)[C@]1(OC(C)=O)CO[C@@H]1C[C@@H]2O [2'-MPA, Paclitaxel 2'-Methylpyridinium Acetate]
- Paclita. % (paclitaxel in 2'-MPA sample) ([1]; 4° C., 1 Hour): 15%
- Unkno. % (unknown in 2'-MPA sample) ([1]; 4° C., 1 Hour): No peak eluted
- Paclita. % (paclitaxel in 2'-MPA sample) ([1]; 4° C., 2 Weeks): 9%
- Unkno. % (unknown in 2'-MPA sample) ([1]; 4° C., 2 Weeks): 10%
- Paclita. % (paclitaxel in 2'-MPA sample) ([1]; 4° C., 6 Hours): 11%
- Unkno. % (unknown in 2'-MPA sample) ([1]; 4° C., 6 Hours): 14%
- Paclita. % (paclitaxel in 2'-MPA sample) ([1]; 4° C., 18 Hours): 10%
- Unkno. % (unknown in 2'-MPA sample) ([1]; 4° C., 18 Hours): 17%
- Paclita. % (paclitaxel in 2'-MPA sample) ([1]; 4° C., 42 Hours): 9%
- Unkno. % (unknown in 2'-MPA sample) ([1]; 4° C., 42 Hours): 12%
- Paclita. % (paclitaxel in 2'-MPA sample) ([1]; 4° C., 66 Hours): 11%
- Unkno. % (unknown in 2'-MPA sample) ([1]; 4° C., 66 Hours): 16%
- Paclita. % (paclitaxel in 2'-MPA sample) ([1]; Room Temperature, 1 Hour): 14%
- Unkno. % (unknown in 2'-MPA sample) ([1]; Room Temperature, 1 Hour): 8%
- Paclita. % (paclitaxel in 2'-MPA sample) ([1]; Room Temperature, 6 Hours): 14%
- Unkno. % (unknown in 2'-MPA sample) ([1]; Room Temperature, 6 Hours): 8%
- Paclita. % (paclitaxel in 2'-MPA sample) ([1]; Room Temperature, 42 Hours): 17%
- Unkno. % (unknown in 2'-MPA sample) ([1]; Room Temperature, 42 Hours): 10%
- Paclita. % (paclitaxel in 2'-MPA sample) ([1]; Room Temperature, 66 Hours): 13%
- Unkno. % (unknown in 2'-MPA sample) ([1]; Room Temperature, 66 Hours): 8%
- Paclita. % (paclitaxel in 2'-MPA sample) ([1]; Room Temperature, 90 Hours): 15%
- Unkno. % (unknown in 2'-MPA sample) ([1]; Room Temperature, 90 Hours): 12%
- 2'-MPA peak [1, 8]: 75%
- Paclitaxel peak in 2'-MPA sample [1, 8]: 15%
- Unknown peak in 2'-MPA sample [1, 8]: 10%
- remaining at 1 h ([1]; water/polyethylene glycol, 4° C., 1 Hour, read-out: 2'-MPA %): 85%
- remaining at 336 h ([1]; water/polyethylene glycol, 4° C., 2 Weeks, read-out: 2'-MPA %): 79%
- remaining at 6 h ([1]; water/polyethylene glycol, 4° C., 6 Hours, read-out: 2'-MPA %): 75%
- remaining at 18 h ([1]; water/polyethylene glycol, 4° C., 18 Hours, read-out: 2'-MPA %): 73%
- remaining at 42 h ([1]; water/polyethylene glycol, 4° C., 42 Hours, read-out: 2'-MPA %): 79%
- remaining at 66 h ([1]; water/polyethylene glycol, 4° C., 66 Hours, read-out: 2'-MPA %): 73%
- remaining at 1 h ([1]; water/polyethylene glycol, Room Temperature, 1 Hour, read-out: 2'-MPA %): 78%
- remaining at 6 h ([1]; water/polyethylene glycol, Room Temperature, 6 Hours, read-out: 2'-MPA %): 78%
- remaining at 18 h ([1]; water/polyethylene glycol, Room Temperature, 18 Hours, peaks of paclitaxel and unknown coeluted, read-out: 2'-MPA %): 69%
- remaining at 42 h ([1]; water/polyethylene glycol, Room Temperature, 42 Hours, read-out: 2'-MPA %): 73%
- remaining at 66 h ([1]; water/polyethylene glycol, Room Temperature, 66 Hours, read-out: 2'-MPA %): 79%
- remaining at 90 h ([1]; water/polyethylene glycol, Room Temperature, 90 Hours, read-out: 2'-MPA %): 73%
- stability on HPLC purification [2]: decomposes rapidly

SMILES: CC(=O)O[C@H]1C(=O)[C@@]2(C)[C@H]([C@H](OC(=O)c3ccccc3)[C@]3(O)C[C@H](OC(=O)[C@H](O)[C@@H](NC(=O)c4ccccc4)c4ccccc4)C(C)=C1C3(C)C)[C@]1(OC(C)=O)CO[C@@H]1C[C@@H]2O [Paclitaxel, paclitaxel]
- effectiveness in chemotherapy [3]: effective for chemotherapy for several types of neoplasms including breast

SMILES: CC(=O)O[C@H]1C(=O)[C@@]2(C)[C@H]([C@H](OC(=O)c3ccccc3)[C@]3(O)C[C@H](OC(=O)[C@H](Oc4cccc[n+]4C)[C@@H](NC(=O)c4ccccc4)c4ccccc4)C(C)=C1C3(C)C)[C@]1(OC(C)=O)CO[C@@H]1C[C@@H]2O [2'-MPM, Paclitaxel-2'-Methylpyridinium Mesylate]
- upper limit of solubility ([4]; deionized water): has not been attained as yet
- Solubility: sample amount for which solution was attained ([4]; deionized water 0.5 ml, sonicated approx. 1 min): 0.97 mg and 0.80 mg
- Solubility: additional water required to provide a free-flowing solution ([4]; largest sample (1.54 mg), on top of 0.5 ml deionized water): 0.1 mL
- Average return for extraction into CH2Cl2 [5]: about 44 % of theoretical
- product concentration ([6]; 0.2M NaCl, 4° C., 24 hours): unchanged
- remaining at 48 h ([6]; 0.2M NaCl, 4° C., 48 hours, read-out: product concentration): 91%
- remaining at 72 h ([6]; 0.2M NaCl, 4° C., read-out: product concentration): 88%
- degraded at 2 h ([6]; 0.2M NaCl, room temperature, 2 hours, read-out: drop in product concentration): 1 to 2%
- remaining at 24 h ([6]; 0.2M NaCl, room temperature, 24 hours, read-out: product concentration): 70%
- Aqueous stability ([6]; 0.2M NaCl, room temperature, first ten minutes): no apparent change
- remaining at 72 h ([6]; H2O, 4° C., read-out: product concentration): 90%
- Aqueous stability ([6]; H2O, room temperature, 2 hours): relatively unchanged
- remaining at 24 h ([6]; H2O, room temperature, 24 hours, read-out: product concentration): 56%
- stability compared with 2'-MPA salt ([6]; aqueous solution, 4° C.): significantly more stable than the 2'-MPA salt
- MPM salt remaining (summary statement) ([6]; aqueous solution, 4° C., 24 hours): unchanged
- remaining at 72 h ([6]; water, aqueous solution, 4° C., read-out: MPM salt remaining (summary statement)): 88 to 91%
- solubility compared with paclitaxel [7]: much higher than for paclitaxel
